Entries after “also recorded” stand apart in the source; their conditions may differ. Read-outs that look alike come from different tables or passages of the source.

This note sets out measurements from article PMC4159296, “Antibodies to the Extracellular Pore Loop of TRPM8 Act as Antagonists of Channel Activation” (PLoS ONE, 2014).

Holding throughout (assay type): cell-based
One assay addresses T1, human TRPM8 (Homo sapiens, UniProt Q7Z2W7).
T1 construct: expressed in transfected cells; host or cells: T-REx-CHO (Chinese hamster ovary), tetracycline-induced
In words: agonist-induced 45Ca2+ uptake assay, CHO cells expressing human TRPM8. Conditions: for IC50: CHO cells, mean ± SD; for block of icilin-induced 45Ca2+ uptake, human TRPM8 in CHO cells: single concentration/volume, 30 µl antibody solution, stock concentrations not provided, Fig. 6A. As to the method:
(§1) Complementary DNAs of recombinant human, rat and mouse TRPM8 were stably transfected into Tetracycline-Regulated Expression cell line, T-REx-Chinese hamster ovary cell line from Invitrogen, Inc. (Carlsbad, CA). Twenty four hours before the assay, cells were seeded in Cytostar-T 96-well plates at a density of 3.0×10^4 per well, and TRPM8 channel expression was induced with 0.5 µg/ml tetracycline. On the day of the assay, culture media were removed, and cells were incubated with TRPM8 antibody (ACC-049), antagonist M8-B, or control IgG for 30 min before addition of ^45Ca^2+. Stock solutions of ACC-049, M8-B, and control IgG were diluted to the desired final concentrations in the assay buffer (F-12 Ham's containing 15 mM HEPES and 0.1 mg/ml BSA) keeping the final concentration of DMSO lower than 0.5% for M8-B. The activity of TRPM8 was monitored as function of cellular uptake of radioactive calcium. The final concentration of ^45Ca^2+in the ^45Ca^2+ uptake assay was 10 µCi/ml. […] For cold activation of TRPM8, cold assay buffer at 10°C was used. ACC-049 was assayed in cells stably expressing human, rat, or mouse TRPM8 channels. The other commercial antibodies listed in Table 1 were assayed at a single concentration in 30 µl in icilin induced activation of human TRPM8 channels. The TRPM8 antagonist M8-B was used as a positive control and control IgG was used as a negative control in all assays. TRPM8 activation was calculated as percent of control (POC) with agonist (cold, icilin or menthol) induced radioactive calcium uptake set as 100 percent and assay buffer only plus ^45Ca^2+ set as zero percent with exception of cold activation, where blockade with M8-B at 1 µM was set as zero percent. Evaluation of antagonism at heat activation of TRPV1 [26], and noxious cold temperature activation of TRPA1 [24] was conducted as reported previously.
(§2) GraphPad Prism 5.0 (GraphPad Software, Inc., San Diego, CA) software was used to plot the data and to calculate the 50% inhibitory concentrations (IC50) of compounds and antibodies using a sigmoidal dose-response equation.

A further assay concerns the target T2, rat TRPM8 (Rattus norvegicus, UniProt Q8R455).
T2 construct: expressed in transfected cells; host or cells: T-REx-CHO (Chinese hamster ovary), tetracycline-induced
Briefly: agonist-induced 45Ca2+ uptake assay, CHO cells expressing rat TRPM8. Particulars: mean ± SD. As to the method:
as §1, §2

The next assay has as its target T3, mouse TRPM8 (Mus musculus, UniProt Q8R4D5).
T3 construct: expressed in transfected cells; host or cells: T-REx-CHO (Chinese hamster ovary), tetracycline-induced
In words: agonist-induced 45Ca2+ uptake assay, CHO cells expressing mouse TRPM8. Particulars: mean ± SD. As to the method:
as §1, §2

Assay [1] has as its target T4, endogenous TRPM8 expressed in rat dorsal root ganglion neurons (Rattus norvegicus, UniProt Q8R455).
T4 construct: endogenous in cells; host or cells: primary dorsal root ganglion neurons from male Sprague Dawley rats
In words: icilin-induced 45Ca2+ uptake assay in freshly isolated rat DRG neurons. Particulars: 1 µM icilin; same single concentration/volume of antibodies; Fig. 6B.

The next assay concerns the target human TRPA1 (Homo sapiens, UniProt O75762). Briefly: noxious cold temperature activation of human TRPA1, 45Ca2+ uptake. Conditions: ACC-049 and control IgG 2.5 µM; peptide 10 µM; Fig. 2. As to the method: as §1, with “ACC-049 was assayed in cells stably expressing human, rat, or mouse TRPM8 channels. The other commercial antibodies listed in Table 1 were assayed at a single concentration in 30 µl in icilin induced activation of human TRPM8 channels. The TRPM8 antagonist M8-B was used as a positive control and control IgG was used as a negative control in all assays.” left out, “Evaluation of antagonism at heat activation of TRPV1 [26], and noxious cold temperature activation of TRPA1 [24] was conducted as reported previously.” left out

The next assay deals with human TRPV1 (Homo sapiens, UniProt Q8NER1). Briefly: heat activation of human TRPV1, 45Ca2+ uptake. Particulars: ACC-049 and control IgG 2.5 µM; peptide 10 µM; Fig. 2. As to the method: as §1, with “ACC-049 was assayed in cells stably expressing human, rat, or mouse TRPM8 channels. The other commercial antibodies listed in Table 1 were assayed at a single concentration in 30 µl in icilin induced activation of human TRPM8 channels. The TRPM8 antagonist M8-B was used as a positive control and control IgG was used as a negative control in all assays.” left out, “Evaluation of antagonism at heat activation of TRPV1 [26], and noxious cold temperature activation of TRPA1 [24] was conducted as reported previously.” left out

T1 sequence (Q7Z2W7 whole entry): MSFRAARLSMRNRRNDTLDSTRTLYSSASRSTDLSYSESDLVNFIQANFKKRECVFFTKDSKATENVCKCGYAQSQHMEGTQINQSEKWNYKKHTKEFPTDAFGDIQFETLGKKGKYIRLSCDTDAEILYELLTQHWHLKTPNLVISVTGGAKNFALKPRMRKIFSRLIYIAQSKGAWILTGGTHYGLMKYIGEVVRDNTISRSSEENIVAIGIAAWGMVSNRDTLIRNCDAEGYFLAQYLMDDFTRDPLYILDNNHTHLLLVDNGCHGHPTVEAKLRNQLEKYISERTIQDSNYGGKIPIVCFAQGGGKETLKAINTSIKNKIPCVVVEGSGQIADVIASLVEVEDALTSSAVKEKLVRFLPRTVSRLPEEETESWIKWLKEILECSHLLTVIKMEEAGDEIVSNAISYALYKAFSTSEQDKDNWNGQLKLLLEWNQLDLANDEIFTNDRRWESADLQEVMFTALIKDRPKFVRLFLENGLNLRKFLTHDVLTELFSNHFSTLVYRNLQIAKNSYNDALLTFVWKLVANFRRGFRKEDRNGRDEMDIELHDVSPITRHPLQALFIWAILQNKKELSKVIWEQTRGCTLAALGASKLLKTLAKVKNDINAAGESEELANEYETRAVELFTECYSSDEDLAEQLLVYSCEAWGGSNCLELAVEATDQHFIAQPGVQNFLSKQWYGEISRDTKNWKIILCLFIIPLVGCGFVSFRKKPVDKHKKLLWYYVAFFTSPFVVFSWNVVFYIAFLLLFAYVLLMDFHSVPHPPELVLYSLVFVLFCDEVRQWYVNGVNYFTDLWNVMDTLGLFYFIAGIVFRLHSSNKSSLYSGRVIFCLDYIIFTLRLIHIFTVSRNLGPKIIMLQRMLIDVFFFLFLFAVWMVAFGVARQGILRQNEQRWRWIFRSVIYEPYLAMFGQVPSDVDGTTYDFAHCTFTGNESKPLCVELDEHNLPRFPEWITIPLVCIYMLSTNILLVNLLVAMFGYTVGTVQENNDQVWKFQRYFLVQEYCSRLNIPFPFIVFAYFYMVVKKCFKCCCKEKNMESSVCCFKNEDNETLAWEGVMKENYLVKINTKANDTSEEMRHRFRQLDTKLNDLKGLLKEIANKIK
T3 sequence (Q8R4D5 whole entry): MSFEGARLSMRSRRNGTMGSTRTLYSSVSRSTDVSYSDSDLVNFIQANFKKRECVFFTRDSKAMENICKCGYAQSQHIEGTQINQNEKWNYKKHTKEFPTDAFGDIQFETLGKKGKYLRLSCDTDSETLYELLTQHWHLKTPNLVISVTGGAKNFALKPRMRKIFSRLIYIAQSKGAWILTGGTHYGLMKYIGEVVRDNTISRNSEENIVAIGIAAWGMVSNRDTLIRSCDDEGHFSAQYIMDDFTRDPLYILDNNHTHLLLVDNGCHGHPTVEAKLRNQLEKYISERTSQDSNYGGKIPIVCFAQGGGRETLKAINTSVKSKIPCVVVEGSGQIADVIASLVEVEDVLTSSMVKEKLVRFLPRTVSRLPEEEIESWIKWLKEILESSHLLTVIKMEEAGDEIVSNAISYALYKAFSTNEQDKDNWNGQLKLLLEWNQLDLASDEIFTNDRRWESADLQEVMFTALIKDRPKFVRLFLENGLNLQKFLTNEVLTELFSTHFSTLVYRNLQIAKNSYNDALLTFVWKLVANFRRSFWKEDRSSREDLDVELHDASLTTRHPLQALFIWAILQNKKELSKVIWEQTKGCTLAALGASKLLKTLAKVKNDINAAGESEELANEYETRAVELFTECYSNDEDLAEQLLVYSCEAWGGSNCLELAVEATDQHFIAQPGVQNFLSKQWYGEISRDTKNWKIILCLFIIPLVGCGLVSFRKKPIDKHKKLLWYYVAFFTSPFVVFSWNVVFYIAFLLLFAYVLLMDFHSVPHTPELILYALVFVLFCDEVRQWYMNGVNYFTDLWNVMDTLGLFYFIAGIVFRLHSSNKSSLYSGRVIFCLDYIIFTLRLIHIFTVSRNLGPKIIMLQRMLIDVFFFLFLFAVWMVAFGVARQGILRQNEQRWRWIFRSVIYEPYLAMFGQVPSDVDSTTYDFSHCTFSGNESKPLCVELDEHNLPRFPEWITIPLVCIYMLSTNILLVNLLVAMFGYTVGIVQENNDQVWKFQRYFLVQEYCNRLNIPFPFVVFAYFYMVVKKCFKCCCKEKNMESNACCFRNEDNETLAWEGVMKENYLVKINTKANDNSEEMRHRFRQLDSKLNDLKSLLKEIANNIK
T2 sequence (Q8R455 whole entry): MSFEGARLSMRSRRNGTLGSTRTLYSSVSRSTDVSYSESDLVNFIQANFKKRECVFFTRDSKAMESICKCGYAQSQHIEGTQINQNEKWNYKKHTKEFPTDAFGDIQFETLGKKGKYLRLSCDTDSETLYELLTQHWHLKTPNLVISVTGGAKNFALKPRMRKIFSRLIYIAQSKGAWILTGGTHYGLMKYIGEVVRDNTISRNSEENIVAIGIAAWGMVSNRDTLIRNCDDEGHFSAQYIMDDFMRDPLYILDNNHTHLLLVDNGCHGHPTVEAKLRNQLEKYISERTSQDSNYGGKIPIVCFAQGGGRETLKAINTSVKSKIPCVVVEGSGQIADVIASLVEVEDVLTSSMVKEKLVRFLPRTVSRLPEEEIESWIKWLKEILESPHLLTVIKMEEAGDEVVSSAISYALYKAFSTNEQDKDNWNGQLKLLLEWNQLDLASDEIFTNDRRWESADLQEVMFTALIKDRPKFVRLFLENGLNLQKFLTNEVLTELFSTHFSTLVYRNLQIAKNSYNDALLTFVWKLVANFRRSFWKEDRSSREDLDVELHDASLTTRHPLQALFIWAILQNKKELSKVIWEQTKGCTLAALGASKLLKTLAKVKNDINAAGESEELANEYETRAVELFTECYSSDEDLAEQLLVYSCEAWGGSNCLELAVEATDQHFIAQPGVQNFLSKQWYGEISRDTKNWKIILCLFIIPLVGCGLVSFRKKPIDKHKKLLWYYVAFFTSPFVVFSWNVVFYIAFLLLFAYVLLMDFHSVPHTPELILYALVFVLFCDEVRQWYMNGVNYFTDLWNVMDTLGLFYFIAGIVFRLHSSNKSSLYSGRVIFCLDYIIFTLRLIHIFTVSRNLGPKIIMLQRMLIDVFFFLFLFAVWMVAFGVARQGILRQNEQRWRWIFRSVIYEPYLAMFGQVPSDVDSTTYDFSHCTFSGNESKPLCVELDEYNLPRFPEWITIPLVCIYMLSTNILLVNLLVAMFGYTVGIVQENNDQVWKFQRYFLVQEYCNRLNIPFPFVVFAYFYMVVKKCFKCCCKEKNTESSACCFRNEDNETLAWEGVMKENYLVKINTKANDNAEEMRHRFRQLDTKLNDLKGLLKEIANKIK
T4 sequence (Q8R455 whole entry): as above
Sequence of human TRPA1 (O75762 whole entry): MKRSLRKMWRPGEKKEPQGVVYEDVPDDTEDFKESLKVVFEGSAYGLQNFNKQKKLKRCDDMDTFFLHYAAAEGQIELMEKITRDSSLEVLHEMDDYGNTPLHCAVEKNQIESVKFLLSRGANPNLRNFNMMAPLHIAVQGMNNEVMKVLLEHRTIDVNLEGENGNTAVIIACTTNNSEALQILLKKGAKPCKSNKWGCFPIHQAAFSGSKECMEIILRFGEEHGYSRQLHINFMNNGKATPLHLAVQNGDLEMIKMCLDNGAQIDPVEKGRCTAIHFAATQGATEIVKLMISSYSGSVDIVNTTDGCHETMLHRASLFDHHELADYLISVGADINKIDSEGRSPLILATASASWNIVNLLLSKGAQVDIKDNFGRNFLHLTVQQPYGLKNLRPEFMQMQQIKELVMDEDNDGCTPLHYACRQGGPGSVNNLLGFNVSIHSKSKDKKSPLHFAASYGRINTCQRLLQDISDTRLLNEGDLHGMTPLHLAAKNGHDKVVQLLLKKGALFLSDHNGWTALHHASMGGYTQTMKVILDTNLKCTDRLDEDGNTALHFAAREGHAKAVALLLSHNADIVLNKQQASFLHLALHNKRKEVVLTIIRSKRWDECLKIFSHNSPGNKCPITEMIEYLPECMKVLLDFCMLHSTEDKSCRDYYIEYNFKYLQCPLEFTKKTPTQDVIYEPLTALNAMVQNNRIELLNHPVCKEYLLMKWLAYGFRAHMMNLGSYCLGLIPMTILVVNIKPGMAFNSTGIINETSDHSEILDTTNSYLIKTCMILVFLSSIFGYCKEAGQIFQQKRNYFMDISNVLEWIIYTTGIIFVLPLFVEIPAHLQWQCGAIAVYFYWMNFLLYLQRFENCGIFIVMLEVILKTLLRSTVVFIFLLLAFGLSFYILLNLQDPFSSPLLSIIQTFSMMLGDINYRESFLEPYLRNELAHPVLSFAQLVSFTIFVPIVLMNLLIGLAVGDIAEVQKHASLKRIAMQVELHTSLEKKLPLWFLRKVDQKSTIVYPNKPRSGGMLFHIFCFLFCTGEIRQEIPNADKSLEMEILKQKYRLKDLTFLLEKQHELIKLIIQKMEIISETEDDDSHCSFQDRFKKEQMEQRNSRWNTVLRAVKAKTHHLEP

In the case of `COc1cc(CN(CCN)C(=O)c2cccs2)ccc1OCc1ccccc1` [M8-B], the IC50 amounted to 11 ± 1.2 nM on human TRPM8 (1 µM icilin, triplicate wells, read-out: IC50, icilin induced human TRPM8 channel activation); 1 ± 1.4 nM on human TRPM8 (100 µM menthol, triplicate wells, read-out: IC50, menthol induced human TRPM8 channel activation); 3 ± 1.1 nM at human TRPM8 (cold 10°C, one experiment in triplicate wells, read-out: IC50, cold induced human TRPM8 channel activation); 11 ± 1.1 nM at rat TRPM8 (1 µM icilin, triplicate wells, read-out: IC50, icilin induced rat TRPM8 channel activation); 2 ± 1.3 nM on rat TRPM8 (100 µM menthol, triplicate wells, read-out: IC50, menthol induced rat TRPM8 channel activation); 2 ± 1.2 nM on rat TRPM8 (cold 10°C, one experiment in triplicate wells, read-out: IC50, cold induced rat TRPM8 channel activation). The half-inhibitory concentration (IC50) on mouse TRPM8 (1 µM icilin, triplicate wells, read-out: IC50, icilin induced mouse TRPM8 channel activation) was found to be 6 ± 1.1 nM; at mouse TRPM8 (100 µM menthol, triplicate wells, read-out: IC50, menthol induced mouse TRPM8 channel activation) it was 2 ± 1.2 nM; at mouse TRPM8 (cold 10°C, one experiment in triplicate wells, read-out: IC50, cold induced mouse TRPM8 channel activation), 2 ± 1.2 nM. For the same compound, on human TRPM8 (1 µM icilin), the “block of icilin-induced 45Ca2+ uptake, human TRPM8 in CHO cells” value is recorded as “fully; also recorded: completely blocked”. In assay [1], the “block of icilin-induced 45Ca2+ uptake, rat DRG neurons” value is “full inhibition”.

For “SDVD GTTYDFAHC (N-terminal SDVD) [peptide, cognate peptide of ACC-049, amino acid residues 917-929 of human TRPM8]”, in the assay with human TRPM8 (1 µM icilin), the “block of icilin-induced 45Ca2+ uptake, human TRPM8 in CHO cells” value is listed as “no effects”. Also, the “blockade of cold activation of human TRPM8, single concentration” value with human TRPM8 (ACC-049 and control IgG 2.5 µM, peptide 10 µM, cold, Fig. 2) is listed as “no effects”. For the same compound, the “blockade of icilin activation of human TRPM8, single concentration” value with human TRPM8 (ACC-049 and control IgG 2.5 µM, peptide 10 µM, icilin, Fig. 2) was “no effects”. The “block of icilin-induced 45Ca2+ uptake, rat DRG neurons” value in assay [1] is on record as “did not affect”. In addition, the “effect on noxious cold temperature activation of human TRPA1, single concentration” value with human TRPA1 was “no effects”. The “effect on heat activation of human TRPV1, single concentration” value with human TRPV1 is “no effects”.
